Assays:
Experiment in all cases: FRET-based coupled-enzyme protein kinase inhibition assay
Assay type in all cases: biochemical
Settings in all cases: compound at 10 µM, 1% DMSO
[1] = target: PLK1 (Homo sapiens, UniProt P53350)
Method in brief: (§1)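 Inhibition was quantified ratiometrically, as coumarin over fluorescein emission following 400 nm excitation, on a doubly labeled peptide whose cleavage by development reagent requires it to remain unphosphorylated. Kinase reactions ran 60 min at room temperature with ATP at apparent Km.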

[2] = target: KIT (Homo sapiens, UniProt P10721)
Sequence of KIT (P10721 26-976, species assumed): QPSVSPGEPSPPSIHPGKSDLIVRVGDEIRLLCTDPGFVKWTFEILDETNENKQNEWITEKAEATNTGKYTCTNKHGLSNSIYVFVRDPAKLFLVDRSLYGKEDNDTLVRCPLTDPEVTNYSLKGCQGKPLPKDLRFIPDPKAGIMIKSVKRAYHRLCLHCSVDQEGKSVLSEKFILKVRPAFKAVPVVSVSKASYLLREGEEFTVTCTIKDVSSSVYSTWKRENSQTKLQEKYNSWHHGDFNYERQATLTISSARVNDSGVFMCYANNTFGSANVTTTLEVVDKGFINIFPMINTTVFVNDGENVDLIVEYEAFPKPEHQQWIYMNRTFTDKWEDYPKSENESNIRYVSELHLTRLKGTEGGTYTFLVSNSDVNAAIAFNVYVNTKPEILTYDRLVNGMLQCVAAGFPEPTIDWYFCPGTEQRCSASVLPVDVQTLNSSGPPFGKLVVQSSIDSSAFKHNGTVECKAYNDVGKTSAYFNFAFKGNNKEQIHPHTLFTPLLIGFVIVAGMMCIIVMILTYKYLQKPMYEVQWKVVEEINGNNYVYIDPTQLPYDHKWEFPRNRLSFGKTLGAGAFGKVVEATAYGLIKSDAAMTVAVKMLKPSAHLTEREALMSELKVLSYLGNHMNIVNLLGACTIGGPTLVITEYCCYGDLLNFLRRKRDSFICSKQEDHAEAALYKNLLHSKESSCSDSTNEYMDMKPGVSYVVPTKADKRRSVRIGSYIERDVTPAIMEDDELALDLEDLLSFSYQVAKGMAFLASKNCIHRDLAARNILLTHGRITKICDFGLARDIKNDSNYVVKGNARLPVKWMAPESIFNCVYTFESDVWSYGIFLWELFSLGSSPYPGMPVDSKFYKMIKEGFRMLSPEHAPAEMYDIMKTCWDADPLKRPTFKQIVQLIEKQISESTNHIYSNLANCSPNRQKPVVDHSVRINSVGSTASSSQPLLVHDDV
Method in brief: as §1

[3] = target: T1, PHKG2 (Homo sapiens, UniProt P15735)
T1 sequence (P15735 1-406): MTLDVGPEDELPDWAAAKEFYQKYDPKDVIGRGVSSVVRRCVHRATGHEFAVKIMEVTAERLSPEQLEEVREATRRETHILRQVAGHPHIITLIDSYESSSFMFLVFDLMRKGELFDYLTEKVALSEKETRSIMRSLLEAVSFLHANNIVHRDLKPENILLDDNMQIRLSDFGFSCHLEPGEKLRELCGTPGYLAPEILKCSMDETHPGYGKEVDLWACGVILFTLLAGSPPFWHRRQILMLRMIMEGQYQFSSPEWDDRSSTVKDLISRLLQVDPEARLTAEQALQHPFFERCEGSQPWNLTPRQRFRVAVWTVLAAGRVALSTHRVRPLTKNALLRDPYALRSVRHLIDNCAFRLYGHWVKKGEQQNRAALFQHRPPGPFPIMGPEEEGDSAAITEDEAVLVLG
Method in brief: as §1

[4] = target: T2, CHEK1 (CHK1) (Homo sapiens, UniProt O14757)
T2 sequence (O14757 1-476): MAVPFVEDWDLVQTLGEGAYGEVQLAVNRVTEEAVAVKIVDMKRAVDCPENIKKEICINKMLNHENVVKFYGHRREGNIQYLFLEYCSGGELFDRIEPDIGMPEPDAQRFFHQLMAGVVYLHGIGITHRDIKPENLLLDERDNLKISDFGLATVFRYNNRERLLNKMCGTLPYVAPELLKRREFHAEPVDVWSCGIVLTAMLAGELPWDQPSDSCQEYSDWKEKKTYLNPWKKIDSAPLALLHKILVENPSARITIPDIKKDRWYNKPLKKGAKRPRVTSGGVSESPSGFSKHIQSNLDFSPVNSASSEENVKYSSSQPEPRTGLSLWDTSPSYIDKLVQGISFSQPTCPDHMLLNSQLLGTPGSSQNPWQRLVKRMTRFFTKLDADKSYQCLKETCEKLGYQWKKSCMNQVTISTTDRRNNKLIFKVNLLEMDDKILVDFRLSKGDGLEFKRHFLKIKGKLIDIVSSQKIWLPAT
Method in brief: as §1

[5] = target: MAPK8 (JNK1) (Homo sapiens, UniProt P45983)
Sequence of MAPK8 (JNK1) (P45983 whole entry, species assumed): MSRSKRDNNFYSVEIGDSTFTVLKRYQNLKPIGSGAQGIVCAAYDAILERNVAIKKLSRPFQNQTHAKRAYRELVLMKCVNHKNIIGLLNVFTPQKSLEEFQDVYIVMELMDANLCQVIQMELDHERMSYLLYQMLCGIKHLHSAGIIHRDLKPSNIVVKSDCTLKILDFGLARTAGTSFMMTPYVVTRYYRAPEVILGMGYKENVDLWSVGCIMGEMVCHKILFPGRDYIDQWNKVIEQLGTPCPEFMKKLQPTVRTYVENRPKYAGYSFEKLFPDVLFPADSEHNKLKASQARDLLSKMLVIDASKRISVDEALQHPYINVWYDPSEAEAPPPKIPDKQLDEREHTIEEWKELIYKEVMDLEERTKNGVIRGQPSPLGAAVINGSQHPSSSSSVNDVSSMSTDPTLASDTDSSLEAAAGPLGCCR
Method in brief: as §1

[6] = target: LCK (Homo sapiens, UniProt P06239)
Sequence of LCK (P06239 whole entry, species assumed): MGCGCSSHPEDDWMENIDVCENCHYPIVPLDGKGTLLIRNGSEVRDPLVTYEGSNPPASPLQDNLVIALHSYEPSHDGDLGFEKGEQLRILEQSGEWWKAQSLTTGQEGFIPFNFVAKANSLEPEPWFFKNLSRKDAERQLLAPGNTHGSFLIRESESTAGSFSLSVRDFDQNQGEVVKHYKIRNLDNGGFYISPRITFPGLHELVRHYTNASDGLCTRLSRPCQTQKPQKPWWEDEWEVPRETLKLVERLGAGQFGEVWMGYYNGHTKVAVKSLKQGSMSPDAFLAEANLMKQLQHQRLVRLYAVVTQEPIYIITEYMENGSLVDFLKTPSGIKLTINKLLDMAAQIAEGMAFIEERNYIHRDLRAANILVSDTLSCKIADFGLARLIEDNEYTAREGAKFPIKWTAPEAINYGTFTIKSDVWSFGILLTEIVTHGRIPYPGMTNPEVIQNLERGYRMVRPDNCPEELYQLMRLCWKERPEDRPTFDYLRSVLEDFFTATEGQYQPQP
Method in brief: as §1

[7] = target: T3, ACVR1B (ALK4) (Homo sapiens, UniProt P36896)
T3 sequence (P36896 24-505): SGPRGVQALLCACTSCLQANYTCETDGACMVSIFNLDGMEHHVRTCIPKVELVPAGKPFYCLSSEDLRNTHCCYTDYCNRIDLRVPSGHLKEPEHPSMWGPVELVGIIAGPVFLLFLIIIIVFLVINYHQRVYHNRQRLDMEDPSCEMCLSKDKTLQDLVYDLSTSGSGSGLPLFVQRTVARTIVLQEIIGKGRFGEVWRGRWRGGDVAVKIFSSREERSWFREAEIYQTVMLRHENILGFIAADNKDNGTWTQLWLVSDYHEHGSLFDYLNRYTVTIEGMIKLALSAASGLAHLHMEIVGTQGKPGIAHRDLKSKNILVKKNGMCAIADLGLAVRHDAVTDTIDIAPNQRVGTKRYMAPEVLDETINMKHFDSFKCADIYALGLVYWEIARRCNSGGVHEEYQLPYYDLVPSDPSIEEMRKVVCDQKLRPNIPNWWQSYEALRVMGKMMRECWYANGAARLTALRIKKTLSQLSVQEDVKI
Method in brief: as §1

Sequence of PLK1 (P53350 whole entry, species assumed): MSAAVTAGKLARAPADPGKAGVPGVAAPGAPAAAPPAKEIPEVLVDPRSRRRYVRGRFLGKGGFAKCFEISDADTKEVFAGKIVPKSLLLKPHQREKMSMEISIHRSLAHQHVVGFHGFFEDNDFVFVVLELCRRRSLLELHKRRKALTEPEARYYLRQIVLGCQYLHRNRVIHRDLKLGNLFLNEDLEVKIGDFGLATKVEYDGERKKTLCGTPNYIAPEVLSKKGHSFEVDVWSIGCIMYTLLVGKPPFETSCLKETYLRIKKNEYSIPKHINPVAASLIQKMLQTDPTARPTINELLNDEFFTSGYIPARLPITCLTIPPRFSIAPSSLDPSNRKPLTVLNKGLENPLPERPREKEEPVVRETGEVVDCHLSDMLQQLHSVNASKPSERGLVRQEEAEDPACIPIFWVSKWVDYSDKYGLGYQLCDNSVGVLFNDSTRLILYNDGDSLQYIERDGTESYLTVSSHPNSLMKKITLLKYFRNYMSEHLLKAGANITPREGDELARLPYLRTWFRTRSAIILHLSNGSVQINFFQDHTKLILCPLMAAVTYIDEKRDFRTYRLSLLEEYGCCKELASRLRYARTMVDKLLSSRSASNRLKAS

| Compound | inhibition at 10 µM [1] | inhibition at 10 µM [2] | inhibition at 10 µM [3] | inhibition at 10 µM [4] | inhibition at 10 µM [5] | inhibition at 10 µM [6] | inhibition at 10 µM [7] |
| --- | --- | --- | --- | --- | --- | --- | --- |
| CC(C)N1CCC(NC(=O)OC[C@H]2O[C@@H](n3cnc4c(N)ncnc43)[C@H](O)[C@@H]2O)CC1 [Compound C19] | -6% | -1% | -3% | -16% | 0% | 32% | 6% |
| Nc1ncnc2c1ncn2[C@@H]1O[C@H](COC(=O)N2CCN(Cc3ccccc3)CC2CO)[C@@H](O)[C@H]1O (stereo partly shown) [Compound C13] | -12% | 18% | 0% | -8% | 2% | 44% | 7% |
| C[C@@H](NC(=O)OC[C@H]1O[C@@H](n2cnc3c(N)ncnc32)[C@H](O)[C@@H]1O)c1ccc(Cl)cc1 [Compound C4] | -3% | 20% | -2% | -11% | 14% | 60% | 1% |
| Nc1ncnc2c1ncn2[C@@H]1O[C@H](COC(=O)NC[C@H](O)CO)[C@@H](O)[C@H]1O [Compound C8] | -1% | 28% | -3% | -8% | 13% | 26% | 0% |
| Nc1ncnc2c1ncn2[C@@H]1O[C@H](COC(=O)N[C@@H]2CCN(Cc3ccccc3)C2)[C@@H](O)[C@H]1O [Compound C10] | -13% | 7% | 0% | -3% | 6% | 62% | 4% |
| Nc1ncnc2c1ncn2[C@@H]1O[C@H](COC(=O)N2CCN(C(=O)N3CCOCC3)CC2)[C@@H](O)[C@H]1O [Compound C89] | -10% | -16% | -2% | -20% | 5% | 9% | 0% |
| Nc1ncnc2c1ncn2[C@@H]1O[C@H](COC(=O)N2CCS(=O)(=O)CC2)[C@@H](O)[C@H]1O [Compound C100] | -11% | -9% | 1% | -8% | 7% | 9% | 3% |
| Nc1ncnc2c1ncn2[C@@H]1O[C@H](COC(=O)N2CCN(CCc3ccccc3)CC2)[C@@H](O)[C@H]1O [Compound C26] | -8% | 6% | -1% | 20% | 8% | 57% | 0% |
| CN(C)CCNC(=O)OC[C@H]1O[C@@H](n2cnc3c(N)ncnc32)[C@H](O)[C@@H]1O [Compound C85] | -3% | 10% | 1% | -9% | 4% | 25% | 0% |
| CS(=O)(=O)N1CC2(CCN(C(=O)OC[C@H]3O[C@@H](n4cnc5c(N)ncnc54)[C@H](O)[C@@H]3O)CC2)c2ccccc21 [Compound C98] | -7% | 20% | -1% | -8% | 4% | 84% | -1% |
| N#CCCN1CCN(C(=O)OC[C@H]2O[C@@H](n3cnc4c(N)ncnc43)[C@H](O)[C@@H]2O)CC1 [Compound C70] | 0% | 12% | 1% | -11% | 8% | 11% | 1% |
| Nc1ncnc2c1ncn2[C@@H]1O[C@H](COC(=O)NCCCc2nc3ccccc3[nH]2)[C@@H](O)[C@H]1O [Compound C1] | -8% | 10% | -3% | -20% | 12% | 72% | 2% |
| CN1CCN(CCNC(=O)OC[C@H]2O[C@@H](n3cnc4c(N)ncnc43)[C@H](O)[C@@H]2O)CC1 [Compound C46] | -5% | 6% | 0% | 2% | -2% | 13% | 6% |
| Nc1ncnc2c1ncn2[C@@H]1O[C@H](COC(=O)N2CCC(Cc3ccc(F)cc3)C2)[C@@H](O)[C@H]1O (stereo partly shown) [Compound C66] | -5% | -7% | -2% | 18% | 6% | 57% | 1% |
| Nc1ncnc2c1ncn2[C@@H]1O[C@H](COC(=O)N2CCC[C@H]2CO)[C@@H](O)[C@H]1O [Compound C9] | -1% | -3% | -4% | 14% | 3% | 19% | -5% |
| Nc1ncnc2c1ncn2[C@@H]1O[C@H](COC(=O)NCCN2CCCC2=O)[C@@H](O)[C@H]1O [Compound C22] | -5% | 3% | -6% | -14% | 5% | 15% | 3% |
